“And” between values parts separate entries of the source, which are not always exact repeats. Equal values may be shown once.
Key:
Assay type in all cases: in vivo
[1] = tested on: wheat (WWT, Triticum aestivum); test: Test A postemergence, wheat; details: POST, 0 to 100 scale, approximately 10 d
Excerpt: (§1) Seeds of plant species selected from barnyardgrass (BYG, Echinochloa crus-galli), kochia (KOC, Kochia scoparia), ragweed (common ragweed, Ambrosia elatior), ryegrass, Italian (RGI, Lolium multiflorum), foxtail, giant (FTI, Setaria faberii), foxtail, green (Setaria viridis) and pigweed (PWR, Amaranthus retroflexus) were planted into a blend of loam soil and sand and treated preemergence with a directed soil spray using test chemicals formulated in a non-phytotoxic solvent mixture which included a surfactant. At the same time, plants selected from these weed species and also wheat (WWT, Triticum aestivum), corn (CPI, Zea mays), blackgrass (BKG, Alopecurus myosuroides) and galium (GAL, catchweed bedstraw, Galium aparine) were planted in pots containing the same blend of loam soil and sand and treated with postemergence applications of test chemicals formulated in the same manner Plants ranged in height from 2 to 10 cm and were in the one- to two-leaf stage for the postemergence treatment. Treated plants and untreated controls were maintained in a greenhouse for approximately 10 d, after which time all treated plants were compared to untreated controls and visually evaluated for injury. Plant response ratings, summarized in Tables 1-4, are based on a 0 to 100 scale where 0 is no effect and 100 is complete control. A dash (−) response means no test result. The ratings are followed by a letter representing the symptomology where S is Albinism, C is Chlorosis, G is Growth Inhibition and E is Emergence.

[2] = tested on: galium (GAL, catchweed bedstraw, Galium aparine); test: Test A postemergence, galium; details: POST, 0 to 100 scale, approximately 10 d
Excerpt: as §1

[3] = tested on: kochia (KOC, Kochia scoparia); test: Test A postemergence, kochia; details: POST, 0 to 100 scale, approximately 10 d
Excerpt: as §1

[4] = tested on: pigweed (PWR, Amaranthus retroflexus); test: Test A postemergence, pigweed; details: POST, 0 to 100 scale, approximately 10 d
Excerpt: as §1

[5] = tested on: ragweed (common ragweed, Ambrosia elatior); test: Test A postemergence, ragweed; details: POST, 0 to 100 scale, approximately 10 d
Excerpt: as §1

[6] = tested on: blackgrass (BKG, Alopecurus myosuroides); test: Test A postemergence, blackgrass; details: POST, 0 to 100 scale, approximately 10 d
Excerpt: as §1

[7] = tested on: ryegrass, Italian (RGI, Lolium multiflorum); test: Test A postemergence, Italian ryegrass; details: POST, 0 to 100 scale, approximately 10 d
Excerpt: as §1

[8] = tested on: barnyardgrass (BYG, Echinochloa crus-galli); test: Test A postemergence, barnyardgrass; details: POST, 0 to 100 scale, approximately 10 d
Excerpt: as §1

[9] = tested on: foxtail, giant (FTI, Setaria faberii); test: Test A postemergence, giant foxtail; details: POST, 0 to 100 scale, approximately 10 d
Excerpt: as §1

[10] = tested on: kochia (KOC, Kochia scoparia); test: Test A preemergence, kochia; details: PRE, 0 to 100 scale, approximately 10 d
Excerpt: as §1

[11] = tested on: pigweed (PWR, Amaranthus retroflexus); test: Test A preemergence, pigweed; details: PRE, 0 to 100 scale, approximately 10 d
Excerpt: as §1

[12] = tested on: ragweed (common ragweed, Ambrosia elatior); test: Test A preemergence, ragweed; details: PRE, 0 to 100 scale, approximately 10 d
Excerpt: as §1

[13] = tested on: ryegrass, Italian (RGI, Lolium multiflorum); test: Test A preemergence, Italian ryegrass; details: PRE, 0 to 100 scale, approximately 10 d
Excerpt: as §1

[14] = tested on: foxtail, giant (FTI, Setaria faberii); test: Test A preemergence, giant foxtail; details: PRE, 0 to 100 scale, approximately 10 d
Excerpt: as §1

corn (CPI, Zea mays) = test: Test A postemergence, corn; details: POST, 0 to 100 scale, approximately 10 d
Excerpt: as §1

[15] = tested on: barnyardgrass (BYG, Echinochloa crus-galli); test: Test A preemergence, barnyardgrass; details: PRE, 0 to 100 scale, approximately 10 d
Excerpt: as §1

[16] = 16 g ai/ha, listed as drawing 32
[17] = 62 g ai/ha, listed as drawing 32
[18] = 125 g ai/ha, listed as drawing 32
[19] = 31 g ai/ha, listed as drawing 32
[20] = 31 g ai/ha, listed as drawing 29
[21] = 125 g ai/ha, listed as drawing 29
[22] = 31 g ai/ha, listed as drawing 30
[23] = 125 g ai/ha, listed as drawing 30

Structure (SMILES): CCC(=O)Oc1c(Cl)nn(C)c(=O)c1-c1c(C)ccc2ccccc12 (racemic) [5 (Enantiomer 5B)]
- Plant response rating WWT [1, 16]: 0
- Plant response rating WWT [1, 17]: 10 S
- Plant response rating WWT [1, 18]: 50 S
- Plant response rating GAL [2, 19]: 90 S and 100 S
- Plant response rating KOC [3, 16]: 50 S
- Plant response rating KOC [3, 17]: 70 S
- Plant response rating KOC [3, 18]: 80 S and 90 S
- Plant response rating PWR [4, 16]: 90 S
- Plant response rating PWR [4, 18]: 100 S
- Plant response rating RWC [5, 16]: 90 S
- Plant response rating RWC [5, 18]: 100 S and 90 S
- Plant response rating BKG [6, 16]: 20 S
- Plant response rating BKG [6, 17]: 40 G
- Plant response rating BKG [6, 18]: 50 S and 80 S
- Plant response rating RGI [7, 16]: 40 C
- Plant response rating RGI [7, 19]: 70 C and 80 C
- Plant response rating RGI [7, 17]: 80 C
- Plant response rating BYG [8, 16]: 30 S
- Plant response rating BYG [8, 17]: 40 S
- Plant response rating BYG [8, 18]: 80 S and 90 S
- Plant response rating FTI [9, 16]: 20 S
- Plant response rating FTI [9, 19]: 60 S and 50 S
- Plant response rating FTI [9, 17]: 60 S
- Plant response rating FTI [9, 18]: 90 S
- Plant response rating KOC [10, 17]: 50 S
- Plant response rating KOC [10, 18]: 70 S and 50 S
- Plant response rating PWR [11, 16]: 0
- Plant response rating PWR [11, 17]: 60 G
- Plant response rating RWC [12, 16]: 20 S
- Plant response rating RWC ([12]; 31 g ai/ha): 70 S and 50 S
- Plant response rating RWC [12, 17]: 70 S
- Plant response rating RWC [12, 18]: 100 C and 90 C
- Plant response rating RGI [13, 17]: 10 S
- Plant response rating FTI [14, 17]: 30 S

Structure (SMILES): CCC(=O)Oc1c(Cl)nn(C)c(=O)c1-c1c(C)ccc2ccc(C)cc12 (racemic) [4 (Enantiomer 4A)]
- Plant response rating CPI (corn (CPI, Zea mays); [20]): 0
- Plant response rating CPI (corn (CPI, Zea mays); [21]): 0
- Plant response rating WWT [1, 20]: 0
- Plant response rating WWT [1, 21]: 0
- Plant response rating GAL [2, 20]: 80 S
- Plant response rating GAL [2, 21]: 100 C
- Plant response rating KOC ([3]; 31 g ai/ha): 50 S
- Plant response rating KOC [3, 21]: 60 S
- Plant response rating PWR [4, 20]: 90 S
- Plant response rating PWR [4, 21]: 100 C
- Plant response rating RWC [5, 20]: 80 S
- Plant response rating RWC [5, 21]: 90 S
- Plant response rating BKG [6, 20]: 10 C 10 C
- Plant response rating BKG [6, 21]: 10 C 10 C
- Plant response rating RGI [7, 20]: 10 C
- Plant response rating RGI [7, 21]: 20 C
- Plant response rating BYG [8, 20]: 0
- Plant response rating BYG [8, 21]: 30 C
- Plant response rating FTI [9, 20]: 0
- Plant response rating FTI [9, 21]: 30 S
- Plant response rating KOC ([10]; 31 g ai/ha): 10 C
- Plant response rating KOC [10, 21]: 50 S
- Plant response rating PWR [11, 20]: 90 C
- Plant response rating PWR [11, 21]: 90 C
- Plant response rating RGI [13, 20]: 0
- Plant response rating RGI [13, 21]: 10 C
- Plant response rating BYG [15, 20]: 0
- Plant response rating BYG [15, 21]: 0
- Plant response rating FTI [14, 20]: 0
- Plant response rating FTI [14, 21]: 10 S

Structure (SMILES): CCC(=O)Oc1c(Cl)nn(C)c(=O)c1-c1c(C)ccc2ccc(C)cc12 (racemic) [4 (Enantiomer 4B)]
- Plant response rating CPI (corn (CPI, Zea mays); [22]): 10 G
- Plant response rating CPI (corn (CPI, Zea mays); [23]): 10 S
- Plant response rating WWT [1, 22]: 0
- Plant response rating WWT [1, 23]: 20 S
- Plant response rating GAL [2, 22]: 100 C 100 C
- Plant response rating GAL [2, 23]: 100 C 100 C
- Plant response rating KOC [3, 23]: 50 S
- Plant response rating PWR [4, 22]: 100 C 100 C 100 C 100 C
- Plant response rating PWR [4, 23]: 100 C 100 C 100 C 100 C
- Plant response rating RWC [5, 22]: 90 S
- Plant response rating RWC [5, 23]: 100 C
- Plant response rating BKG [6, 22]: 20 S
- Plant response rating BKG [6, 23]: 70 S
- Plant response rating RGI [7, 22]: 80 C
- Plant response rating RGI [7, 23]: 90 C
- Plant response rating BYG [8, 22]: 70 S
- Plant response rating BYG [8, 23]: 90 S
- Plant response rating FTI [9, 22]: 80 S
- Plant response rating FTI [9, 23]: 90 S
- Plant response rating KOC [10, 23]: 70 S
- Plant response rating PWR [11, 22]: 100 C 100 C 100 C 100 C
- Plant response rating PWR [11, 23]: 100 C 100 C 100 C 100 C
- Plant response rating RGI [13, 22]: 80 S
- Plant response rating RGI [13, 23]: 90 S
- Plant response rating BYG [15, 22]: 100 C
- Plant response rating BYG [15, 23]: 100 C
- Plant response rating FTI [14, 22]: 100 C
- Plant response rating FTI [14, 23]: 100 C
